≈ marks a conversion by molar mass, not a printed value.
Columns and labels:
[1] = system: Anas platyrhynchos
[2] = system: Apis mellifera; settings: acute; duration: 48 hours; oral; unspecified; mortality
[3] = system: Bibionidae; settings: chronic/long-term; duration: 28 days
[4] = system: Canidae; settings: chronic; duration: 1 years; oral; Dog Other; clinical chemistry
[5] = system: Colinus virginianus
[6] = system: Cyprinodon variegatus; settings: acute; duration: 96 hours; mortality
[7] = system: Daphnia magna; settings: chronic/long-term; duration: 21 days; growth
[8] = system: Folsomia candida; settings: chronic/long-term; duration: 28 days
[9] = system: Oncorhynchus mykiss; settings: acute; duration: 96 hours; mortality
[10] = system: Oryctolagus sp.; settings: developmental; development
[11] = system: Pimephales promelas; settings: chronic/long-term; duration: 34 days; other
[12] = system: Rattus norvegicus; settings: oral
[13] = system: Tagia sp.
[14] = system: Aphidius rhopalosiphi; experiment: LR50; higher = less toxic; settings: not reported; mortality
[15] = system: Typhlodromus pyri; experiment: LR50; higher = less toxic; settings: not reported; mortality

Compound: CCCN(CCC)c1c([N+](=O)[O-])cc(S(N)(=O)=O)cc1[N+](=O)[O-] [Oryzalin]
- NOEL ([1]; reproductive): 41 mg/kg-day
- LD50 ([1]; short-term, oral, feed, mortality): > 1350 mg/kg-day
- LD50 [2]: 32 µg/piece
- NOEC [3]: 1 mg/L
- NOAEL [4]: 5 mg/kg-day
- LD50 ([5]; acute, oral, diet, mortality): > 691 mg/kg-day
- NOEL ([5]; reproduction developmental): 28 mg/kg-day
- LC50 [6]: > 3.04 µg/mL
- NOEC [7]: 0.36 mg/L
- NOEC [8]: 34.3 mg/kg
- LC50 [9]: 2.86 µg/mL (≈ 8.26 µM)
- NOAEL [10]: 25 mg/kg-day
- NOEC [11]: 0.22 mg/L
- LD50 ([12]; acute, mortality): > 5000 mg/kg-day
- NOAEL ([12]; subchronic, duration: 90 days, hematological): 5 mg/kg-day
- LC50 ([13]; acute, duration: 14 days, mortality): > 103 mg/kg
- NOEC ([13]; chronic/long-term, duration: 56 days): 34.3 mg/kg
- LR50 [14]: > 3850 g/ha
- LR50 [15]: < 3850 g/ha

From EPA's ToxValDB 9.5 (doi:10.2903/j.efsa.2010.1707)
